Test results from US8592421B2, “Cyclic bioisosters of purine system derivatives and a pharmaceutical composition based thereon” (priority 2003, dated 2013).

Legend:
[1] = Electrochemical activity: polarographic reduction on mercury dripping electrode; assay type: physicochemical; settings: for i: 2.0% sodium chloride background, 9·10^−4 M; for i / −E1/2: 37° C., forward trace, average for the group of compounds; for −E1/2: vs SCE
plasma hemostasis [2] = assay: Prothrombin time after intravenous administration; assay type: in vivo, rabbit
Protocol: (§1) The static parameters of the blood and plasma coagulation (partial activated thromboplastin time, thrombin time, maximum coagulation activity (test for auto coagulation) were determined using the Behnk Electronic coagulometer (Germany). The operating principle of this instrument is based on the fact that the formed blood clot breaks the contacts of the pulse counter in the flask-pin circuit, said pin permanently oscillating in a vertical plane. The moment of formation of the clot is registered by stopping the stop watch hand.
(§2) The measurements were effected at a constant temperature of 37° C. maintained by a temperature control unit.
The method of its determination is based on estimation of the coagulation of citrate or oxalic blood plasma, when it is mixed with thromboplastin and a calcium chloride solution. Since under these conditions the time of formation of the clot depends on the content of II, VII, IX and X factors in the investigated plasma sample, now the test is called “thromboplastin time by Quick” or “activity thromboplastin complex”.
Citrate blood containing 1 part of citrate per 9 parts of native blood was centrifuged at 3000 rev/min for 10 minutes to obtain plasma deprived of thrombocytes.
Added into a test tube in a water bath were 0.1 ml of plasma and 0.1 ml of a thromboplastin solution.

plasma hemostasis [3] = assay: Autocoagulation test (coagulating activity A) after intravenous administration; assay type: in vivo, rabbit
Protocol: The investigations were performed on 72 rabbits of the “Chinchilla” breed with a mass of 2.5±0.3 kg, who were administered which solutions of compounds 2, 15, 21, 37 in doses of 15, 30 and 60 mg/kg intravenously. The experiments included the thrombin-test (series No. 7300) and the coagulability-test (series No. 5000) purchased from the scientific-and-production association (SPA) “Renam”, thromboplastin (series No. 240600) and calcium chloride purchased from the SPA “MedioLab”
as §1, §2
Compounds 2, 15, 21, 37 according to the invention at a concentration of 15, 30 and 60 mg/kg were intravenously administered to the above experimental animals and their blood samples were taken off 15, 30, 60 and 120 minutes after the administration.
Added to 0.2 ml of plasma obtained by centrifuging citrate blood at 1500 rev/min within 10 minutes was a glycosylate-calcium mixture (2.0 ml 0.222% CaCl2+0.1 ml of investigated citrate blood) 4, 6, 8, 10 minutes after the preparation of this mixture and the time of coagulation in the sample was determined.
The obtained results in seconds were translated in factors of coagulating activity A in percent, which specify the state of both the coagulating and anticoagulating parts of the blood coagulating system. The results of the experiments are given in Table 7. • The effect of the compounds according to the invention on the values of coagulating activity A by the data of autocoagulation test with intravenous administration of the compounds to the rabbits

Nc1cccc2c(=O)[nH][nH]c(=O)c12.[Na] [Compound 15, sodium salt of 5-amino-benzo[d]-3H-pyridazine-1,4-dione]
number of electrons participating in the reduction reaction ([1]; calculated with Geirovsky-Ilkovich equation): 4.09 | i ([1]; pH 7.0): 0.23 ± 0.03 mkA | −E1/2 ([1]; pH 7.0): 0.092 ± 0.02 V | i ([1]; pH 7.2): 0.30 ± 0.01 mkA | −E1/2 ([1]; pH 7.2): 0.09 ± 0.01 V | i ([1]; pH 7.4): 0.29 ± 0.02 mkA | −E1/2 ([1]; pH 7.4): 0.092 ± 0.02 V | i ([1]; pH 7.6): 0.31 ± 0.02 mkA | −E1/2 ([1]; pH 7.6): 0.09 ± 0.01 V | half-wave potential more positive at reverse stroke compared to forward stroke ([1]; polarograms of reverse stroke): 30.0 mV | prothrombin time, T (plasma hemostasis [2]; 15.0 mg/kg intravenously, after 15 minutes, control 11.8 ± 0.1): 11.5 ± 0.2 s | prothrombin time, T (plasma hemostasis [2]; 15.0 mg/kg intravenously, after 30 minutes, control 11.8 ± 0.1): 11.7 ± 0.2 s | prothrombin time, T (plasma hemostasis [2]; 15.0 mg/kg intravenously, after 60 minutes, control 11.8 ± 0.1): 11.2 ± 0.2 s | prothrombin time, T (plasma hemostasis [2]; 15.0 mg/kg intravenously, after 120 minutes, control 11.8 ± 0.1): 11.5 ± 0.2 s | prothrombin time, T (plasma hemostasis [2]; 30.0 mg/kg intravenously, after 15 minutes, control 11.2 ± 0.1): 11.0 ± 0.2 s | prothrombin time, T (plasma hemostasis [2]; 30.0 mg/kg intravenously, after 30 minutes, control 11.2 ± 0.1): 11.2 ± 0.2 s | prothrombin time, T (plasma hemostasis [2]; 30.0 mg/kg intravenously, after 60 minutes, control 11.2 ± 0.1): 11.4 ± 0.2 s | prothrombin time, T (plasma hemostasis [2]; 30.0 mg/kg intravenously, after 120 minutes, control 11.2 ± 0.1): 11.3 ± 0.2 s | prothrombin time, T (plasma hemostasis [2]; 60.0 mg/kg intravenously, after 15 minutes, control 12.0 ± 0.1): 12.0 ± 0.1 s | prothrombin time, T (plasma hemostasis [2]; 60.0 mg/kg intravenously, after 30 minutes, control 12.0 ± 0.1): 12.0 ± 0.1 s | prothrombin time, T (plasma hemostasis [2]; 60.0 mg/kg intravenously, after 60 minutes, control 12.0 ± 0.1): 12.0 ± 0.2 s | prothrombin time, T (plasma hemostasis [2]; 60.0 mg/kg intravenously, after 120 minutes, control 12.0 ± 0.1): 12.0 ± 0.1 s | effect on the prothrombin time index (plasma hemostasis [2]; doses of 15.0, 30.0, 60.0 mg/kg): have no effect on the prothrombin time index | coagulating activity A (autocoagulation test) (plasma hemostasis [3]; 15.0 mg/kg intravenously, after 15 minutes, control 85.6): 82.3% | coagulating activity A (autocoagulation test) (plasma hemostasis [3]; 15.0 mg/kg intravenously, after 30 minutes, control 85.6): 103.0% | coagulating activity A (autocoagulation test) (plasma hemostasis [3]; 15.0 mg/kg intravenously, after 60 minutes, control 85.6): 89.0% | coagulating activity A (autocoagulation test) (plasma hemostasis [3]; 15.0 mg/kg intravenously, after 120 minutes, control 85.6): 101.2% | coagulating activity A (autocoagulation test) (plasma hemostasis [3]; 30.0 mg/kg intravenously, after 15 minutes, control 70.0): 100.3% | coagulating activity A (autocoagulation test) (plasma hemostasis [3]; 30.0 mg/kg intravenously, after 30 minutes, control 70.0): 68.4% | coagulating activity A (autocoagulation test) (plasma hemostasis [3]; 30.0 mg/kg intravenously, after 60 minutes, control 70.0): 106.6% | coagulating activity A (autocoagulation test) (plasma hemostasis [3]; 30.0 mg/kg intravenously, after 120 minutes, control 70.0): 70.6% | coagulating activity A (autocoagulation test) (plasma hemostasis [3]; 60.0 mg/kg intravenously, after 15 minutes, control 65.9): 74.4% | coagulating activity A (autocoagulation test) (plasma hemostasis [3]; 60.0 mg/kg intravenously, after 30 minutes, control 65.9): 63.2% | coagulating activity A (autocoagulation test) (plasma hemostasis [3]; 60.0 mg/kg intravenously, after 60 minutes, control 65.9): 64.4% | coagulating activity A (autocoagulation test) (plasma hemostasis [3]; 60.0 mg/kg intravenously, after 120 minutes, control 65.9): 66.5% | effect on the coagulation activity according to the autocoagulation test (plasma hemostasis [3]; doses 15.0, 30.0, 60.0 mg/kg): have no effect on the coagulation activity
